The source of these data is US8535901B2, “Peptidase substrates” (bioMérieux, S.A., priority 2009, dated 2013).

SMILES strings stand for the structures.

Type in all cases: cell-based
Experiment [1] concerns Candida albicans ATCC 90 028. Nature of the experiment: Peptidase detection on Columbia medium with substrate. Also noted: key to Grow. (growth): NG: No growth; 0.5: weak growth; 1: moderate growth; 2: good growth. Particulars: 40 mg substrate in 400 ml Columbia medium, 24 hours at 37° C.
Protocol: (§2) The 6 media were distributed into Petri dishes 90 mm in diameter, in a proportion of 20 ml per dish.
(§3) Seventeen strains of microorganisms stemming from collections and belonging to various species of bacteria and yeasts are inoculated in spots of approximately 10 000 colony-forming units.
(§4) The media are incubated for 24 hours at 37° C., and then the colonies formed are examined visually, with or without the addition of acid and under a UV lamp at 365 nm.
The subject of experiment [2] is Bacillus subtilis NCTC 9 372. The description is as above. Also noted: key to Grow. (growth): NG: No growth; 0.5: weak growth; 1: moderate growth; 2: good growth. Particulars: 40 mg substrate in 400 ml Columbia medium, 24 hours at 37° C.
Protocol: as §2, §3, §4
Experiment [3] deals with Staphylococcus aureus NCTC 6 571. The description is as above. Particulars: 40 mg substrate in 400 ml Columbia medium, 24 hours at 37° C. Also noted: key to Grow. (growth): NG: No growth; 0.5: weak growth; 1: moderate growth; 2: good growth.
Protocol: as §2, §3, §4
Experiment [4] has as its system Salmonella typhimurium NCTC 74. The experiment is described as above. Set-up: key to Grow. (growth): NG: No growth; 0.5: weak growth; 1: moderate growth; 2: good growth. Particulars: 40 mg substrate in 400 ml Columbia medium, 24 hours at 37° C.
Protocol: as §2, §3, §4
Experiment [5] relates to Enterococcus faecalis NCTC 775. The experiment is described as above. Set-up: key to Grow. (growth): NG: No growth; 0.5: weak growth; 1: moderate growth; 2: good growth. Particulars: 40 mg substrate in 400 ml Columbia medium, 24 hours at 37° C.
Protocol: as §2, §3, §4
Experiment [6] concerns Enterobacter cloacae NCTC 11 936. The description is as above. Set-up: key to Grow. (growth): NG: No growth; 0.5: weak growth; 1: moderate growth; 2: good growth. Particulars: 40 mg substrate in 400 ml Columbia medium, 24 hours at 37° C.
Protocol: as §2, §3, §4
Experiment [7] has as its system Serratia marcescens NCTC 10 211. The description is as above. Set-up: key to Grow. (growth): NG: No growth; 0.5: weak growth; 1: moderate growth; 2: good growth. Particulars: 40 mg substrate in 400 ml Columbia medium, 24 hours at 37° C.
Protocol: as §2, §3, §4
Experiment [8] concerns Pseudomonas aeruginosa NCTC 10 662. Described as above. Particulars: 40 mg substrate in 400 ml Columbia medium, 24 hours at 37° C. Also noted: key to Grow. (growth): NG: No growth; 0.5: weak growth; 1: moderate growth; 2: good growth.
Protocol: as §2, §3, §4
Experiment [9] deals with Yersinia enterocolitica NCTC 11 176. The description is as above. Set-up: key to Grow. (growth): NG: No growth; 0.5: weak growth; 1: moderate growth; 2: good growth. Particulars: 40 mg substrate in 400 ml Columbia medium, 24 hours at 37° C.
Protocol: as §2, §3, §4
For experiment [10], the system named is Providencia rettgeri NCTC 7 475. Described as above. Set-up: key to Grow. (growth): NG: No growth; 0.5: weak growth; 1: moderate growth; 2: good growth. Particulars: 40 mg substrate in 400 ml Columbia medium, 24 hours at 37° C.
Protocol: as §2, §3, §4
The test system of experiment [11] is Enterococcus faecium NCTC 7 171. The experiment is described as above. Also noted: key to Grow. (growth): NG: No growth; 0.5: weak growth; 1: moderate growth; 2: good growth. Particulars: 40 mg substrate in 400 ml Columbia medium, 24 hours at 37° C.
Protocol: as §2, §3, §4
Experiment [12] relates to Candida glabrata NCPF 3 943. The experiment is described as above. Set-up: key to Grow. (growth): NG: No growth; 0.5: weak growth; 1: moderate growth; 2: good growth. Particulars: 40 mg substrate in 400 ml Columbia medium, 24 hours at 37° C.
Protocol: as §2, §3, §4
The test system of experiment [13] is Escherichia coli NCTC 10 418. Described as above. Also noted: key to Grow. (growth): NG: No growth; 0.5: weak growth; 1: moderate growth; 2: good growth. Particulars: 40 mg substrate in 400 ml Columbia medium, 24 hours at 37° C.
Protocol: as §2, §3, §4
Experiment [14] relates to Streptococcus pyogenes NCTC 8 306. The experiment is described as above. Set-up: key to Grow. (growth): NG: No growth; 0.5: weak growth; 1: moderate growth; 2: good growth. Particulars: 40 mg substrate in 400 ml Columbia medium, 24 hours at 37° C.
Protocol: as §2, §3, §4
The test system of experiment [15] is Staphylococcus epidermidis NCTC 11 047. The experiment is described as above. Particulars: 40 mg substrate in 400 ml Columbia medium, 24 hours at 37° C. Set-up: key to Grow. (growth): NG: No growth; 0.5: weak growth; 1: moderate growth; 2: good growth.
Protocol: as §2, §3, §4
For experiment [16], the system named is Staphylococcus aureus NCTC 11 939. The experiment is described as above. Particulars: 40 mg substrate in 400 ml Columbia medium, 24 hours at 37° C. Also noted: key to Grow. (growth): NG: No growth; 0.5: weak growth; 1: moderate growth; 2: good growth.
Protocol: as §2, §3, §4
Experiment [17] deals with Listeria monocytogenes NCTC 11 994. Described as above. Set-up: key to Grow. (growth): NG: No growth; 0.5: weak growth; 1: moderate growth; 2: good growth. Particulars: 40 mg substrate in 400 ml Columbia medium, 24 hours at 37° C.
Protocol: as §2, §3, §4
Experiment [18] relates to Enterobacter cloacae NCTC 11 936. Nature of the experiment: Colony color on lactose/sucrose agar medium with pH indicator. Particulars: indicator 0.05 g/l with lactose, sucrose and 5-bromo-4-chloro-3-indoxyl-β-D-glucopyranoside 0.05 g/l, 24 hours at 37° C., visual. Here is the method:
(§1) Seven strains of microorganisms originating from the NCTC collection and belonging to various species of bacteria are inoculated onto these media by quadrant streaking of 10 μl of a suspension at 0.5 McFarland diluted to a 1/20.

For experiment [19], the system named is Klebsiella pneumoniae NCTC 10 896. The description is as above. Particulars: indicator 0.05 g/l with lactose, sucrose and 5-bromo-4-chloro-3-indoxyl-β-D-glucopyranoside 0.05 g/l, 24 hours at 37° C., visual. Here is the method:
as §1

In experiment [20] the test system is Enterobacter aerogenes NCTC 10 102. The description is as above. Particulars: indicator 0.05 g/l with lactose, sucrose and 5-bromo-4-chloro-3-indoxyl-β-D-glucopyranoside 0.05 g/l, 24 hours at 37° C., visual. Here is the method:
as §1

The subject of experiment [21] is Shigella boydii NCTC 9327. The description is as above. Particulars: indicator 0.05 g/l with lactose, sucrose and 5-bromo-4-chloro-3-indoxyl-β-D-glucopyranoside 0.05 g/l, 24 hours at 37° C., visual. Here is the method:
as §1

For experiment [22], the system named is Escherichia coli NCTC 12 076. Described as above. Particulars: indicator 0.05 g/l with lactose, sucrose and 5-bromo-4-chloro-3-indoxyl-β-D-glucopyranoside 0.05 g/l, 24 hours at 37° C., visual. Here is the method:
as §1

In experiment [23] the test system is Citrobacter freundii NCTC 9750. Described as above. Particulars: indicator 0.05 g/l with lactose, sucrose and 5-bromo-4-chloro-3-indoxyl-β-D-glucopyranoside 0.05 g/l, 24 hours at 37° C., visual. Here is the method: as §1
The test system of experiment [24] is Morganella morganii NCTC 235. The description is as above. Particulars: indicator 0.05 g/l with lactose, sucrose and 5-bromo-4-chloro-3-indoxyl-β-D-glucopyranoside 0.05 g/l, 24 hours at 37° C., visual. Here is the method:
as §1

For the molecule `C[n+]1ccc(C=Cc2ccc(NC(=O)CCN)cc2)cc1.[Cl-]` [β-Ala-ASPM^+, β-Alanyl-4-(4′-amidostyryl)-N-methyl-pyridinium chloride], the “Grow. (growth)” value worked out at 2 in experiment [1]; 2 in experiment [2]; 2 in [3]; 1 in experiment [4]; 2 in experiment [5]; 2 in experiment [6]. Besides, the “Grow. (growth)” value in [7] is given as 2; in experiment [8], 2; in [9] it was 2; in [10], 2; in experiment [11], 2; in experiment [12], 1. Also, the “Grow. (growth)” value in experiment [13] was determined as 2; in experiment [14] it was 1; in experiment [15], 2; in experiment [16] it was 2; in experiment [17], 2. Also, the “Col. (colour of the colonies)” value is listed as “Pale green” in experiment [1] (visual); “Pale green” in experiment [2] (visual); “Green” in [3] (visual); “Pale green” in experiment [4] (visual); “Pale green” in experiment [5] (visual); “Green” in experiment [6] (visual). Further, the “Col. (colour of the colonies)” value is “Orange” in experiment [7] (visual); “Orange” in experiment [8] (visual); “Pale green” in experiment [9] (visual); “Green” in [10] (visual); “Pale green” in experiment [11] (visual); “Pale green” in [12] (visual). In addition, the “Col. (colour of the colonies)” value is “Green” in [13] (visual); “Pale green” in [14] (visual); “Green” in experiment [15] (visual); “Green” in [16] (visual); “Pale green” in experiment [17] (visual).

Turning to `Nc1ccc(C=Cc2ccncc2)cc1` [4-4′-Aminostyrylpyridine, 4-(4′-Aminostyryl)pyridine], the Colony color result in [18] is “Green”; in experiment [19], “Green”; in [20], “Green”; in experiment [21], “Colorless”; in experiment [22], “Yellow”; in experiment [23] it was “Yellow”. For the same molecule, the Colony color result in experiment [24] was “Colorless”.
